Patent US7569605B2, “Methods of treating central nervous system disorders with a low dose combination of escitalopram and bupropion” (Forest Laboratories Holdings Limited, priority 2005, dated 2009)

Test system: patients with major depressive disorder (MDD)
Assay: double-blind fixed dose comparison in major depressive disorder: safety and tolerability
Assay type: in vivo, human
Conditions: for Early Discontinuation: AEs / Early Discontinuation: All Reasons / Early Discontinuation: Insufficient Response / Incidence of TEAEs: Pts with at least 1 TEAE / Selected TEAEs: anorexia / Selected TEAEs: completed suicide* / Selected TEAEs: constipation / Selected TEAEs: decreased appetite / Selected TEAEs: diarrhea / Selected TEAEs: dizziness / Selected TEAEs: dry mouth / Selected TEAEs: early morn awakening / Selected TEAEs: ejaculation delayed / Selected TEAEs: erectile dysfunction / Selected TEAEs: hypersomnia / Selected TEAEs: increased appetite / Selected TEAEs: initial insomnia / Selected TEAEs: insomnia / Selected TEAEs: intentional self-injury / Selected TEAEs: lethargy / Selected TEAEs: libido decreased / Selected TEAEs: libido increased / Selected TEAEs: middle insomnia / Selected TEAEs: nausea / Selected TEAEs: orgasm abnormal / Selected TEAEs: sedation / Selected TEAEs: sleep disorder / Selected TEAEs: somnolence / Selected TEAEs: suicidal ideation / Selected TEAEs: vomiting / Selected TEAEs: weight decreased / Selected TEAEs: weight increased: number of patients (%), 8 weeks double-blind; for patients discontinued treatment early / patients exhibited at least one Treatment Emergent Adverse Event (TEAE): percent of patients, as given in the text
Experimental: The present study evaluates the efficacy, safety, and tolerability of escitalopram/bupropion combination treatment relative to its component monotherapies, and to placebo in patients with major depressive disorder (MDD).
The study consists of a one-week single-blind placebo lead-in period followed by an 8 week double-blind treatment period. Approximately 135 patients are randomized to each of four treatment groups (placebo, escitalopram oxalate 4 mg, bupropion hydrochloride 150 mg, or escitalopram oxalate 4 mg/bupropion hydrochloride 150 mg), for a total of […].
A randomized, double-blind, fixed-dose, multicenter, parallel-group study is conducted in outpatients with MDD. Patients who meet eligibility criteria at Screening (Visit 1) enter a one-week, single-blind, lead-in period of placebo treatment. Patients who complete the lead-in period and continue to meet all entry criteria at Baseline (Visit 2) are randomly assigned to 8 weeks of double-blind treatment with either placebo, escitalopram 4 mg, bupropion XL 150 mg, or escitalopram 4 mg/bupropion XL 150 mg combination. Assignment to a treatment group is according to a computer-generated randomization schedule.
Safety assessments are made of the patients by a physician at every visit and the evaluation documented. At each visit beginning with Visit 2, patients are queried regarding any adverse events (AEs) since the last visit. Study site personnel record all pertinent information in the electronic Case Report Forms (eCRF). Patients are asked to volunteer information concerning AEs with non-leading question such as “How do you feel?” AEs are collected at Visit 2 and all subsequent visits including early termination.
Dosing: For the single-blind lead-in period, patients are supplied with placebo capsules. For the double-blind period, identical appearing capsules are supplied which contain placebo, escitalopram 4 mg, or bupropion extended-release 150 mg. Medication are supplied in blister cards, each containing 20 capsules arranged in two rows of 10 capsules.
All study medication is administered as a single daily dose throughout the study, preferably at the same time each evening starting on the day the medication is dispensed to the patient. Dosing is subsequently be switched to morning, if preferred. At each visit, patients are instructed to take 2 capsules daily, one from Row 1 and one from Row 2. Patients are instructed to return all unused medication at each study visit. Patients who meet eligibility criteria at Visit 1 are dispensed one blister card containing 20 placebo capsules. Patients are instructed to take two capsules daily as a single dose beginning on the day study medication is dispensed. Patients who meet all eligibility criteria at Visit 2 are assigned a randomization number and dispensed the corresponding blister card for Week 1 of treatment as shown in the Figure below:
Patients are assigned the lowest randomization number available at the site. Patients are instructed to take two capsules daily as a single dose beginning on the day study medication is dispensed. In accordance with their assigned treatment group, patients receive placebo, 4 mg escitalopram, 150 mg bupropion, or 4 mg escitalopram and 150 mg bupropion per day.
At Visit 3, patients are dispensed one blister card for Week 2 of treatment. At Visits 4, 5, and 6, patients are dispensed two blister cards for Weeks 3-4, 5-6, and 7-8 of treatment, respectively. Patients are instructed to continue taking two capsules daily as a single dose. In accordance with their assigned treatment group, patients receive placebo, 4 mg escitalopram, 150 bupropion, or 4 mg escitalopram and 150 mg bupropion per day.

CC(NC(C)(C)C)C(=O)c1cccc(Cl)c1 (racemic) [bupropion, (±)-1-(3-chlorophenyl)-2-[(1,1-dimethylethyl)amino]-1-propanone]
Early Discontinuation: AEs: 10 (7.5%)
Early Discontinuation: All Reasons: 29 (21.6%)
Early Discontinuation: Insufficient Response: 4 (3.0%)
Incidence of TEAEs: Pts with at least 1 TEAE: 101 (75.4%)
Selected TEAEs: anorexia: 0%
Selected TEAEs: completed suicide*: 0%
Selected TEAEs: constipation: 6 (4.5%)
Selected TEAEs: decreased appetite: 5 (3.7%)
Selected TEAEs: diarrhea: 5 (3.7%)
Selected TEAEs: dizziness: 2 (1.5%)
Selected TEAEs: dry mouth: 13 (9.7%)
Selected TEAEs: early morn awakening: 2 (1.5%)
Selected TEAEs: ejaculation delayed: 0%
Selected TEAEs: erectile dysfunction: 0%
Selected TEAEs: hypersomnia: 0%
Selected TEAEs: increased appetite: 3 (2.2%)
Selected TEAEs: initial insomnia: 1 (0.7%)
Selected TEAEs: insomnia: 14 (10.4%)
Selected TEAEs: intentional self-injury: 0%
Selected TEAEs: lethargy: 2 (1.5%)
Selected TEAEs: libido decreased: 1 (0.7%)
Selected TEAEs: libido increased: 0%
Selected TEAEs: middle insomnia: 3 (2.2%)
Selected TEAEs: nausea: 5 (3.7%)
Selected TEAEs: orgasm abnormal: 0%
Selected TEAEs: sedation: 1 (0.7%)
Selected TEAEs: sleep disorder: 2 (1.5%)
Selected TEAEs: somnolence: 2 (1.5%)
Selected TEAEs: suicidal ideation: 1 (0.7%)
Selected TEAEs: vomiting: 0%
Selected TEAEs: weight decreased: 4 (3.0%)
Selected TEAEs: weight increased: 0%
patients discontinued treatment early: 21.6%
patients exhibited at least one Treatment Emergent Adverse Event (TEAE): 75.4%

CN(C)CCC[C@@]1(c2ccc(F)cc2)OCc2cc(C#N)ccc21 [escitalopram, 1-[3-(dimethyl-amino)propyl]-1-(p-fluorophenyl)-5-phthalancarbonitrile]
Early Discontinuation: AEs: 5 (3.8%)
Early Discontinuation: All Reasons: 24 (18.3%)
Early Discontinuation: Insufficient Response: 0%
Incidence of TEAEs: Pts with at least 1 TEAE: 86 (65.6%)
Selected TEAEs: anorexia: 1 (0.8%)
Selected TEAEs: completed suicide*: 0%
Selected TEAEs: constipation: 3 (2.3%)
Selected TEAEs: decreased appetite: 2 (1.5%)
Selected TEAEs: diarrhea: 6 (4.6%)
Selected TEAEs: dizziness: 3 (2.3%)
Selected TEAEs: dry mouth: 11 (8.4%)
Selected TEAEs: early morn awakening: 1 (0.8%)
Selected TEAEs: ejaculation delayed: 2 (3.9%)
Selected TEAEs: erectile dysfunction: 0%
Selected TEAEs: hypersomnia: 0%
Selected TEAEs: increased appetite: 1 (0.8%)
Selected TEAEs: initial insomnia: 0%
Selected TEAEs: insomnia: 5 (3.8%)
Selected TEAEs: intentional self-injury: 0%
Selected TEAEs: lethargy: 0%
Selected TEAEs: libido decreased: 3 (2.3%)
Selected TEAEs: libido increased: 0%
Selected TEAEs: middle insomnia: 0%
Selected TEAEs: nausea: 10 (7.6%)
Selected TEAEs: orgasm abnormal: 0%
Selected TEAEs: sedation: 1 (0.8%)
Selected TEAEs: sleep disorder: 0%
Selected TEAEs: somnolence: 4 (3.1%)
Selected TEAEs: suicidal ideation: 0%
Selected TEAEs: vomiting: 2 (1.5%)
Selected TEAEs: weight decreased: 0%
Selected TEAEs: weight increased: 3 (2.3%)
patients discontinued treatment early: 18.3%
patients exhibited at least one Treatment Emergent Adverse Event (TEAE): 65.6%
